Values after ≈ are worked out from the molar mass of the structure shown. Square brackets hold non-standard residues; d marks the D form. Peptide text beside a SMILES is read from it. Bip(4'-Cl) = N[C@@H](Cc1ccc(-c2ccc(Cl)cc2)cc1)C(=O)O; Bip = N[C@@H](Cc1ccc(-c2ccccc2)cc1)C(=O)O; dBip = N[C@H](Cc1ccc(-c2ccccc2)cc1)C(=O)O; Phe(4-Br) = N[C@@H](Cc1ccc(Br)cc1)C(=O)O; Phe(4-Cl) = N[C@@H](Cc1ccc(Cl)cc1)C(=O)O; Phe(4-I) = N[C@@H](Cc1ccc(I)cc1)C(=O)O; Phe(4-Me) = Cc1ccc(C[C@H](N)C(=O)O)cc1
tested on: Mupirocin-resistant MRSA ATCC-BAA-1556; experiment: microbe, parasite or virus in culture; assay type: cell-based, Staphylococcus aureus; settings: ATCC-BAA-1556; read-out: MIC
Experimental: The MICs of test compounds were determined using the microdilution method from the Clinical and Laboratory Standards Institute (CLSI) guidelines (Clinical and Laboratory Standards Institute. Methods for dilution antimicrobial susceptibility tests for bacteria that grow aerobically; approved standard—ninth edition. Document M07-A9. Vol. 32 No. 2. Wayne, Pa.: CLSI; 2012). Briefly, bacteria were grown fresh from frozen stock in Mueller Hinton 2 (MH2) agar at 37° C. After an overnight incubation, 5 bacteria colonies were selected to grow in cation-adjusted MH2 broth in a shaking incubator (140 RPM) at 37° C. Cells were grown to an optical density (OD600) of 0.15-0.16 determined using a spectrophotometer (Molecular Devices Spectra Max Plus), which corresponds to ˜1×10^8 CFU/mL. Test compounds were constituted into 4 mM DMSO stock solutions and then subjected to 2-fold serial dilution in a 96-well plate with concentrations ranging from 100 to 0.195 μM in duplicates. […] of microbial culture containing ˜1×10^6 CFU/mL of microbes in the respective broths was introduced into each well containing 50 μL of compound solution. After an overnight incubation at 35° C., (220 RPM), OD600 measurements were conducted using the microplate spectrophotometer. The MIC was defined as the lowest antibiotic or compound concentration (μM) required to inhibit bacteria growth.
The 11th well was used as the growth control well (medium with bacterial inoculums, no antibacterial) while the 12th well was the sterility control well (medium only).

| SMILES | MIC [µM] |
| --- | --- |
| N=C(N)NCCCCNC(=O)[C@H](Cc1ccc(-c2ccccc2)cc1)NC(=O)[C@H](CCCNC(=N)N)NC(=O)[C@@H](N)Cc1ccc(-c2ccccc2)cc1 [Compound 1] | 12.5 (≈ 9.16 µg/mL) |
| N=C(N)NCCC[C@H](NC(=O)[C@H](Cc1ccc(-c2ccccc2)cc1)NC(=O)[C@H](CCCNC(=N)N)NC(=O)[C@@H](N)Cc1ccc(-c2ccccc2)cc1)C(N)=O [Compound 3] (H-[Bip]R[Bip]R-NH2) | 12.5 (≈ 9.7 µg/mL) |
| N=C(N)NCCC[C@@H](NC(=O)[C@@H](Cc1ccc(-c2ccccc2)cc1)NC(=O)[C@@H](CCCNC(=N)N)NC(=O)[C@H](N)Cc1ccc(-c2ccccc2)cc1)C(N)=O [Compound 4] (H-[dBip][dR][dBip][dR]-NH2) | 12.5 (≈ 9.7 µg/mL) |
| N=C(N)NCCC[C@H](NC(=O)[C@H](Cc1ccc(-c2ccccc2)cc1)NC(=O)[C@H](CCCNC(=N)N)NC(=O)[C@@H](N)Cc1ccccc1)C(N)=O [Compound 5] (H-FR[Bip]R-NH2) | >100 |
| N=C(N)NCCC[C@H](NC(=O)[C@H](Cc1ccccc1)NC(=O)[C@H](CCCNC(=N)N)NC(=O)[C@@H](N)Cc1ccc(-c2ccccc2)cc1)C(N)=O [Compound 6] (H-[Bip]RFR-NH2) | >100 |
| N=C(N)NCCC[C@H](NC(=O)[C@H](Cc1ccc(-c2ccccc2)cc1)NC(=O)[C@H](CCCNC(=N)N)NC(=O)[C@@H](N)Cc1ccc(-c2ccc(Cl)cc2)cc1)C(N)=O [Compound 15] (H-[Bip(4'-Cl)]R[Bip]R-NH2) | 6.25 (≈ 5.07 µg/mL) |
| N=C(N)NCCC[C@H](NC(=O)[C@H](Cc1ccc(-c2ccc(Cl)cc2)cc1)NC(=O)[C@H](CCCNC(=N)N)NC(=O)[C@@H](N)Cc1ccc(-c2ccccc2)cc1)C(N)=O [Compound 16] (H-[Bip]R[Bip(4'-Cl)]R-NH2) | 6.25 (≈ 5.07 µg/mL) |
| N=C(N)NCCC[C@H](NC(=O)[C@H](Cc1ccc(-c2ccccc2)cc1)NC(=O)[C@H](CCCNC(=N)N)NC(=O)[C@@H](N)Cc1ccc(-c2ccc(Cl)c(Cl)c2)cc1)C(N)=O [Compound 17] | 6.25 (≈ 5.28 µg/mL) |

Other lines, results leading:

| MIC [µM] | SMILES |
| --- | --- |
| 100 (≈ 71.4 µg/mL) | Cc1ccc(C[C@H](N)C(=O)N[C@@H](CCCNC(=N)N)C(=O)N[C@@H](Cc2ccc(-c3ccccc3)cc2)C(=O)N[C@@H](CCCNC(=N)N)C(N)=O)cc1 [Compound 7] (H-[Phe(4-Me)]R[Bip]R-NH2) |
| >100 | Cc1ccc(C[C@H](NC(=O)[C@H](CCCNC(=N)N)NC(=O)[C@@H](N)Cc2ccc(-c3ccccc3)cc2)C(=O)N[C@@H](CCCNC(=N)N)C(N)=O)cc1 [Compound 8] (H-[Bip]R[Phe(4-Me)]R-NH2) |
| 100 (≈ 73.4 µg/mL) | N=C(N)NCCC[C@H](NC(=O)[C@H](Cc1ccc(-c2ccccc2)cc1)NC(=O)[C@H](CCCNC(=N)N)NC(=O)[C@@H](N)Cc1ccc(Cl)cc1)C(N)=O [Compound 9] (H-[Phe(4-Cl)]R[Bip]R-NH2) |
| 100 (≈ 73.4 µg/mL) | N=C(N)NCCC[C@H](NC(=O)[C@H](Cc1ccc(Cl)cc1)NC(=O)[C@H](CCCNC(=N)N)NC(=O)[C@@H](N)Cc1ccc(-c2ccccc2)cc1)C(N)=O [Compound 10] (H-[Bip]R[Phe(4-Cl)]R-NH2) |
| 50 (≈ 38.9 µg/mL) | N=C(N)NCCC[C@H](NC(=O)[C@H](Cc1ccc(-c2ccccc2)cc1)NC(=O)[C@H](CCCNC(=N)N)NC(=O)[C@@H](N)Cc1ccc(Br)cc1)C(N)=O [Compound 11] (H-[Phe(4-Br)]R[Bip]R-NH2) |
| 100 (≈ 77.9 µg/mL) | N=C(N)NCCC[C@H](NC(=O)[C@H](Cc1ccc(Br)cc1)NC(=O)[C@H](CCCNC(=N)N)NC(=O)[C@@H](N)Cc1ccc(-c2ccccc2)cc1)C(N)=O [Compound 12] (H-[Bip]R[Phe(4-Br)]R-NH2) |
| 50 (≈ 41.3 µg/mL) | N=C(N)NCCC[C@H](NC(=O)[C@H](Cc1ccc(-c2ccccc2)cc1)NC(=O)[C@H](CCCNC(=N)N)NC(=O)[C@@H](N)Cc1ccc(I)cc1)C(N)=O [Compound 13] (H-[Phe(4-I)]R[Bip]R-NH2) |
| 100 (≈ 82.6 µg/mL) | N=C(N)NCCC[C@H](NC(=O)[C@H](Cc1ccc(I)cc1)NC(=O)[C@H](CCCNC(=N)N)NC(=O)[C@@H](N)Cc1ccc(-c2ccccc2)cc1)C(N)=O [Compound 14] (H-[Bip]R[Phe(4-I)]R-NH2) |

Source: patent US20200157144A1, “ANTIMICROBIAL PEPTIDOMIMETICS” (priority 2017, published 2020)
